# Reference: patent publication US20150010928A1, “MEANS AND METHODS FOR ASSESSING AN ENDOCRINE DISEASE OR DISORDER” (priority 2012, published 2015)
# Marks after values point to notes of the source that are not given here.
# Test system: female rats
# Test: Plasma metabolite profiling (GC-MS, LC-MS, SPE-LC-MS) in female rats dosed once daily over 28 days (OECD 407)
# Type: in vivo, rat
# Conditions: high dose
# Procedure, shortened: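 Metabolites were measured by GC-MS (derivatised) and reversed-phase LC-MS, with steroids by online SPE-LC-MS, in plasma drawn from fasted rats on days 7, 14 and 28 of once-daily dosing (5/sex/group). Values are ratios versus sex-matched untreated controls, normalized to pool samples, with Welch-test p-values.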
smiles,measurement,setting,value
C[C@@H]1CC2=CC(=O)CC[C@@H]2[C@H]2CC[C@@]3(C)[C@@H](CC[C@]3(C)O)[C@@H]21 [Mibolerone],3-Hydroxybutyrate,"f7, female rats, Table 15a",1.36 *
same,"DAG (C18:1,C18:2)","f7, female rats, Table 15a",0.43
same,Glutamate,"f7, female rats, Table 15a",1.66 *
same,Glycine,"f7, female rats, Table 15a",1.19 *
same,"Phosphatidylcholine (C16:0,C20:5)","f7, female rats, Table 15a",0.56
same,"TAG (C16:0,C16:1)","f7, female rats, Table 15a",2.26
same,"TAG (C16:0,C18:1,C18:3)","f7, female rats, Table 15a",1.22
same,"TAG (C16:0,C18:2)","f7, female rats, Table 15a",0.87
same,"TAG (C18:1,C18:2)","f7, female rats, Table 15a",0.77
same,"TAG (C18:2,C18:2)","f7, female rats, Table 15a",0.9
same,"TAG (C18:3, C18:2, C18:1)","f7, female rats, Table 15a",0.99
same,TAG (DAG-Fragment),"f7, female rats, Table 15a",0.95
same,TAG No 059,"f7, female rats, Table 15a",1.08 *
same,Threonic acid,"f7, female rats, Table 15a",1.15 *
same,trans-4-Hydroxyproline,"f7, female rats, Table 15a",1.8 *
same,Androstenedione,"f7, female rats, Table 15b",0.14 *
same,Arginine,"f7, female rats, Table 15b",0.85 *
same,Campesterol,"f7, female rats, Table 15b",0.16
same,"Ceramide (d18:1,C24:0)","f7, female rats, Table 15b",0.12 *
same,Lactate,"f7, female rats, Table 15b",0.62 *
same,Lysine,"f7, female rats, Table 15b",0.68 *
same,Metanephrine,"f7, female rats, Table 15b",0.62 *
same,Normetanephrine,"f7, female rats, Table 15b",1.15
same,"Phosphatidylcholine (C16:0,C20:5)","f7, female rats, Table 15b",0.56 *
same,"Phosphatidylcholine (C16:0,C22:6)","f7, female rats, Table 15b",0.18 *
same,"Phosphatidylcholine (C18:0, C20:3)","f7, female rats, Table 15b",0.2 *
same,"Phosphatidylcholine (C18:0,C18:1)","f7, female rats, Table 15b",0.21 *
same,Progesterone,"f7, female rats, Table 15b",0.62
same,Pyruvate,"f7, female rats, Table 15b",0.75 *
same,"Sphingomyelin (d18:1,C23:0)","f7, female rats, Table 15b",0.06 *
same,"Sphingomyelin (d18:1,C24:0)","f7, female rats, Table 15b",0.11 *
same,Urea,"f7, female rats, Table 15b",0.65 *
same,3-Hydroxybutyrate,"f14, female rats, Table 15a",1.73 *
same,"DAG (C18:1,C18:2)","f14, female rats, Table 15a",2.88 *
same,Glutamate,"f14, female rats, Table 15a",1.67 *
same,Glycine,"f14, female rats, Table 15a",1.22 *
same,"Phosphatidylcholine (C16:0,C20:5)","f14, female rats, Table 15a",1.54 *
same,"TAG (C16:0,C16:1)","f14, female rats, Table 15a",12.22 *
same,"TAG (C16:0,C18:1,C18:3)","f14, female rats, Table 15a",8.88 *
same,"TAG (C16:0,C18:2)","f14, female rats, Table 15a",6.82 *
same,"TAG (C18:1,C18:2)","f14, female rats, Table 15a",8.37 *
same,"TAG (C18:2,C18:2)","f14, female rats, Table 15a",6.69 *
same,"TAG (C18:3, C18:2, C18:1)","f14, female rats, Table 15a",5.98 *
same,TAG (DAG-Fragment),"f14, female rats, Table 15a",7.86 *
same,TAG No 059,"f14, female rats, Table 15a",4.67 *
same,Threonic acid,"f14, female rats, Table 15a",1.18 *
same,trans-4-Hydroxyproline,"f14, female rats, Table 15a",2.44 *
same,Androstenedione,"f14, female rats, Table 15b",0.11 *
same,Arginine,"f14, female rats, Table 15b",0.98 *
same,Campesterol,"f14, female rats, Table 15b",0.89
same,"Ceramide (d18:1,C24:0)","f14, female rats, Table 15b",2.02 *
same,Lactate,"f14, female rats, Table 15b",0.74 *
same,Lysine,"f14, female rats, Table 15b",0.63 *
same,Metanephrine,"f14, female rats, Table 15b",0.72 *
same,Normetanephrine,"f14, female rats, Table 15b",0.66 *
same,"Phosphatidylcholine (C16:0,C20:5)","f14, female rats, Table 15b",1.54
same,"Phosphatidylcholine (C16:0,C22:6)","f14, female rats, Table 15b",0.84 *
same,"Phosphatidylcholine (C18:0, C20:3)","f14, female rats, Table 15b",0.98
same,"Phosphatidylcholine (C18:0,C18:1)","f14, female rats, Table 15b",0.93
same,Progesterone,"f14, female rats, Table 15b",0.13 *
same,Pyruvate,"f14, female rats, Table 15b",0.83 *
same,"Sphingomyelin (d18:1,C23:0)","f14, female rats, Table 15b",1.26
same,"Sphingomyelin (d18:1,C24:0)","f14, female rats, Table 15b",1.33 *
same,Urea,"f14, female rats, Table 15b",0.48 *
same,3-Hydroxybutyrate,"f28, female rats, Table 15a",1.06
same,"DAG (C18:1,C18:2)","f28, female rats, Table 15a",2.27 *
same,Glutamate,"f28, female rats, Table 15a",1.73 *
same,Glycine,"f28, female rats, Table 15a",1.18 *
same,"Phosphatidylcholine (C16:0,C20:5)","f28, female rats, Table 15a",1.32 *
same,"TAG (C16:0,C16:1)","f28, female rats, Table 15a",5.83 *
same,"TAG (C16:0,C18:1,C18:3)","f28, female rats, Table 15a",6.23 *
same,"TAG (C16:0,C18:2)","f28, female rats, Table 15a",4.89 *
same,"TAG (C18:1,C18:2)","f28, female rats, Table 15a",4.95 *
same,"TAG (C18:2,C18:2)","f28, female rats, Table 15a",4.92 *
same,"TAG (C18:3, C18:2, C18:1)","f28, female rats, Table 15a",4.74 *
same,TAG (DAG-Fragment),"f28, female rats, Table 15a",5.74 *
same,TAG No 059,"f28, female rats, Table 15a",3.5 *
same,Threonic acid,"f28, female rats, Table 15a",1.94 *
same,trans-4-Hydroxyproline,"f28, female rats, Table 15a",2 *
same,Androstenedione,"f28, female rats, Table 15b",0.07 *
same,Arginine,"f28, female rats, Table 15b",0.83 *
same,Campesterol,"f28, female rats, Table 15b",0.54 *
same,"Ceramide (d18:1,C24:0)","f28, female rats, Table 15b",1.53 *
same,Lactate,"f28, female rats, Table 15b",0.73 *
same,Lysine,"f28, female rats, Table 15b",0.57 *
same,Metanephrine,"f28, female rats, Table 15b",0.66 *
same,Normetanephrine,"f28, female rats, Table 15b",0.78 *
same,"Phosphatidylcholine (C16:0,C20:5)","f28, female rats, Table 15b",1.32
same,"Phosphatidylcholine (C16:0,C22:6)","f28, female rats, Table 15b",0.74 *
same,"Phosphatidylcholine (C18:0, C20:3)","f28, female rats, Table 15b",0.91 *
same,"Phosphatidylcholine (C18:0,C18:1)","f28, female rats, Table 15b",0.86
same,Progesterone,"f28, female rats, Table 15b",0.06 *
same,Pyruvate,"f28, female rats, Table 15b",0.65 *
same,"Sphingomyelin (d18:1,C23:0)","f28, female rats, Table 15b",0.63 *
same,"Sphingomyelin (d18:1,C24:0)","f28, female rats, Table 15b",1.05
same,Urea,"f28, female rats, Table 15b",0.88 *
